Laboratory results from patent publication US20160158200A1, “Combinations of Hepatitis C Virus Inhibitors” (priority 2013, published 2016).

tested on: HCV genotype-1a variant with glutamine 30 changed to glutamate in the NS5A protein; assay type: cell-based; conditions: not given
Method in brief: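 Synergy was assessed by combining several fixed amounts of an NS5A-targeting compound with a titration of the second compound of interest.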

Question: With COc1cc2ccccc2c(C(=O)N2CCC[C@H]2c2ncc(-c3ccc(-c4ccc(-c5cnc([C@@H](NC(=O)C(C)(C)C)C(C)C)[nH]5)cc4)cc3)[nH]2)n1 [Compound Y-13] as the compound, how does the “Fold-Synergistic 1a (Q30E)” value read?
Answer: >100 fold

same assay, conditions: test compound titrated with BMS-790052 fixed at 200 nM; genotype 1a Q30E replicon

Question: CC(C)(C)[C@H](NC(=O)C1C2CCOC21)c1nc(-c2ccc(-c3ccc(-c4cnc([C@@H](NC(=O)C5C6CCOC65)C(C)(C)C)[nH]4)cc3)cc2)c[nH]1 (single isomer, unassigned) [Compound B-165] was tested. Which “Fold-Synergistic 1a (Q30E)” value did it give?
Answer: >100 fold

Question: How did the “Fold-Synergistic 1a (Q30E)” value turn out when CC1(C(=O)NC(c2nc(-c3ccc(-c4ccc(-c5c[nH]c(C(NC(=O)C6(C)CCCC(F)(F)CO6)C(C)(C)C)n5)cc4)cc3)c[nH]2)C(C)(C)C)CCCC(F)(F)CO1 (stereo not shown) [Compound Y-92] was run?
Answer: >100 fold

Question: Which “Fold-Synergistic 1a (Q30E)” value does the source give for COC1(C(=O)C(=O)N[C@H](c2ncc(-c3ccc(-c4ccc(-c5cnc([C@@H](NC(=O)C(=O)C6(OC)CCC6)C(C)C)[nH]5)cc4)cc3)[nH]2)C(C)C)CCC1 [Compound P-116] here?
Answer: >100 fold

Question: For CC(C)(C)OC(=O)N1CC2(CC(C(=O)NC(c3nc(-c4ccc(-c5ccc(-c6c[nH]c(C(NC(=O)C7CC8(C7)CN(C(=O)OC(C)(C)C)C8)C(C)(C)C)n6)cc5)cc4)c[nH]3)C(C)(C)C)C2)C1 [Compound L-57], which “Fold-Synergistic 1a (Q30E)” value is on record?
Answer: >100 fold

Question: With COCC(C)(C)C(=O)N[C@H](c1nc(-c2ccc(-c3ccc(-c4c[nH]c([C@@H](NC(=O)C(C)(C)COC)C(C)(C)C)n4)cc3)cc2)c[nH]1)C(C)(C)C [Compound P-12] as the compound, how does the “Fold-Synergistic 1a (Q30E)” value read?
Answer: >100 fold

Question: How did the “Fold-Synergistic 1a (Q30E)” value turn out when CN(CC(F)(F)F)C(C)(C)C(=O)NC(c1nc(-c2ccc(-c3ccc(-c4c[nH]c(C(NC(=O)C(C)(C)N(C)CC(F)(F)F)C(C)(C)C)n4)cc3)cc2)c[nH]1)C(C)(C)C [Compound L-62] was run?
Answer: >100 fold

Question: With COC1(C(=O)NC(c2nc(-c3ccc(-c4ccc(-c5c[nH]c(C(NC(=O)C6(OC)CCOC6)C(C)C)n5)cc4)cc3)c[nH]2)C(C)C)CCOC1 (mixture of isomers) [Compound N-159] as the compound, how does the “Fold-Synergistic 1a (Q30E)” value read?
Answer: >100 fold

Question: Which “Fold-Synergistic 1a (Q30E)” value does the source give for CC(C)(C)C(NC(=O)C1C(c2ccccc2)C1c1ccccc1)c1nc(-c2ccc(-c3ccc(-c4c[nH]c(C(NC(=O)C5C(c6ccccc6)C5c5ccccc5)C(C)(C)C)n4)cc3)cc2)c[nH]1 (mixture of isomers) [Compound S-271] here?
Answer: >100 fold

Question: CN1CCC[C@H]1C(=O)N[C@H](c1nc(-c2ccc(-c3ccc(-c4c[nH]c([C@@H](NC(=O)[C@@H]5CCCN5C)C(C)(C)C)n4)cc3)cc2)c[nH]1)C(C)(C)C [Compound P-36] was tested. Which “Fold-Synergistic 1a (Q30E)” value did it give?
Answer: >10 fold

Question: With CC(C)(C)OC(=O)NC1(C(=O)N[C@H](c2nc(-c3ccc(-c4ccc(-c5c[nH]c([C@@H](NC(=O)C6(NC(=O)OC(C)(C)C)CCCCC6)C(C)(C)C)n5)cc4)cc3)c[nH]2)C(C)(C)C)CCCCC1.O=C(O)C(F)(F)F.O=C(O)C(F)(F)F [Compound L-7] as the compound, how does the “Fold-Synergistic 1a (Q30E)” value read?
Answer: >100 fold

Question: With CC(C)(C)[C@H](NC(=O)C1CC2CCC(C1)C2(F)F)c1nc(-c2ccc(-c3ccc(-c4c[nH]c([C@@H](NC(=O)C5CC6CCC(C5)C6(F)F)C(C)(C)C)n4)cc3)cc2)c[nH]1 (stereo partly shown) [Compound P-45] as the compound, how does the “Fold-Synergistic 1a (Q30E)” value read?
Answer: >100 fold

Question: For CC(C)(C)[C@H](NC(=O)C1(C2(O)CCC(F)(F)CC2)CC1)c1ncc(C#Cc2ccc3cc(-c4cnc([C@@H](NC(=O)C5(C6(O)CCC(F)(F)CC6)CC5)C(C)(C)C)[nH]4)ccc3c2)[nH]1 [Compound B5B], which “Fold-Synergistic 1a (Q30E)” value is on record?
Answer: >100 fold

Question: How did the “Fold-Synergistic 1a (Q30E)” value turn out when CC(C)(C)OC(=O)C(=O)N[C@H](c1nc(-c2ccc(-c3ccc(-c4c[nH]c([C@@H](NC(=O)C(=O)OC(C)(C)C)C(C)(C)C)n4)cc3)cc2)c[nH]1)C(C)(C)C [Compound W-43A] was run?
Answer: >100 fold

Question: Which “Fold-Synergistic 1a (Q30E)” value does the source give for CN(C)C(=N[C@H](c1ncc(-c2ccc(-c3ccc(-c4cnc([C@@H](NC(=O)C(C)(C)C5CCCC5)C(C)(C)C)[nH]4)cc3)cc2)[nH]1)C(C)(C)C)N(C)C [Compound B83] here?
Answer: >100 fold

Question: For CC1(C(=O)N[C@H](c2nc(-c3ccc(-c4ccc(-c5c[nH]c([C@@H](NC(=O)C6(C)CCCCC6O)C(C)(C)C)n5)cc4)cc3)c[nH]2)C(C)(C)C)CCCCC1O (single isomer, unassigned) [Compound Y-106], which “Fold-Synergistic 1a (Q30E)” value is on record?
Answer: >100 fold
